Data on 1 compound can be found in patent US9624288B2, “Engineered receptors and their use” (University of Pittsburgh—Of the Commonwealth System of …, priority 2012, dated 2017).

The test deals with T1, EGRAFY mutant (R91A, F188Y; SEQ ID NO: 15) (Dickeya chrysanthemi, UniProt P0C7B7, F187Y/INS163G/R91A).
T1 construct: expressed in transfected cells; host or cells: Xenopus laevis oocytes
Briefly: Two-electrode voltage clamp, amine agonist activation of the EGRAFY mutant in oocytes. The test is classed as cell-based, Erwinia chrysanthemi / human. Here is the method:
For pH measurements, 10 mM MES was added. […] Non-linear regressions were performed using Prism software (Graphpad). […] (FIG. 2).

The compound `CCCN` [propylamine] showed an EC50 of 1900 ± 200 nM.
